Results taken from patent US10745432B2, “Crystal of 6′-sialyllactose sodium salt, and process for producing same” (KYOWA HAKKO BIO CO., LTD., priority 2015, dated 2020).

Columns and labels:
Format in all cases: physicochemical
[1] = Hygroscopicity: weight change on storage at 30° C., relative humidity 80%
Procedure: The hygroscopicity of the obtained crystal of 6SL sodium salt 4.6-hydrate and that of a 6SL sodium reagent (amorphous salt, manufactured by Carbosynth Limited) were compared under the following conditions.
Storage condition: 30° C., relative humidity: 80% (apparatus: THE051FA, manufactured by Advantec Toyo Kaisha Ltd.).
Measurement method: After about 100 mg of a sample was weighed with a precision balance, the sample was packed in a glass container and stored under the above-mentioned conditions. Thereafter, the sample was weighed again, and the weight change ratio was calculated.
Incidentally, the weight of the sample at each elapsed time was measured by assuming the weight of each sample at the start of the test to be 100%.

[2] = Degree of coloration (transmittance at 430 nm) when a heat load at 60° C. was applied; settings: for degree of coloration, transmittance T % 430 nm: solution at 100 g/L in terms of anhydrate, 1 cm
Procedure: Further, with respect to the crystal of 6SL sodium salt 4.6-hydrate and known amorphous 6SL sodium salt, the degree of coloration when a heat load at 60° C. was applied was compared, and the results are shown in Table 4.
The degree of coloration is expressed by transmittance T % 430 nm 100×10^−A (A=Abs: 430 nm, 1 cm), which was obtained by dissolving each substance at 100 g/L in terms of an anhydrate and performing measurement for the solution.

[3] = pH of aqueous solution of the crystal; settings: aqueous solution at 100 g/L in terms of crystal of 6SL sodium salt 4.6-hydrate
Procedure: As for the pH, an aqueous solution at 100 g/L in terms of crystal of 6SL sodium salt 4.6-hydrate was measured.

SMILES	weight of sample (weight at start of test = 100%) ([1]; elapsed time 0.5 hours, sodium salt) [%]	weight of sample (weight at start of test = 100%) ([1]; elapsed time 2.5 hours, sodium salt) [%]	weight of sample (weight at start of test = 100%) ([1]; elapsed time 8 hours, sodium salt) [%]	weight of sample (weight at start of test = 100%) ([1]; elapsed time 20 hours, sodium salt) [%]	degree of coloration, transmittance T % 430 nm ([2]; elapsed time 0 days, sodium salt) [%]	degree of coloration, transmittance T % 430 nm ([2]; elapsed time 3 days, sodium salt) [%]	degree of coloration, transmittance T % 430 nm ([2]; elapsed time 6 days, sodium salt) [%]	pH [3]	hygroscopicity (in words) ([1]; compared with amorphous salt)	weight of sample (weight at start of test = 100%) ([1]; elapsed time 0 hours (start, assumed 100%)) [%]	weight of sample (weight at start of test = 100%) ([1]; elapsed time 0.5 hours) [%]	weight of sample (weight at start of test = 100%) ([1]; elapsed time 2.5 hours) [%]	weight of sample (weight at start of test = 100%) ([1]; elapsed time 8 hours) [%]	weight of sample (weight at start of test = 100%) ([1]; elapsed time 20 hours) [%]	degree of coloration during storage (in words) ([2]; compared with known amorphous 6SL sodium salt)	degree of coloration, transmittance T % 430 nm ([2]; elapsed time 0 days) [%]	degree of coloration, transmittance T % 430 nm ([2]; elapsed time 3 days) [%]	degree of coloration, transmittance T % 430 nm ([2]; elapsed time 6 days) [%]
CC(=O)NC1C(O)CC(OCC2OC(OC3C(CO)OC(O)C(O)C3O)C(O)C(O)C2O)(C(=O)[O-])OC1C(O)C(O)CO.[Na+] (stereo not drawn) [Amorphous salt, 6SL sodium salt, reference compound]	114.4	119.6	122.9	124.1	99.4	99.0	98.8	–	–	–	–	–	–	–	–	–	–	–
CC(=O)NC1C(O)CC(OCC2OC(OC3C(CO)OC(O)C(O)C3O)C(O)C(O)C2O)(C(=O)[O-])OC1C(O)C(O)CO.[Na+] (stereo not drawn) [Crystal of sodium salt, 6SL sodium salt 4.6-hydrate]	–	–	–	–	–	–	–	6.23	lower hygroscopicity than the amorphous salt	100.0	98.8	98.6	98.4	98.7	lower than that of known amorphous 6SL sodium salt	99.9	99.8	99.8
